Experimental data taken from article PMC8397634 (Journal of Natural Medicines, 2021).
Where “and” joins values, the source holds several entries; their conditions need not be identical. Equal entries are not always repeated. Entries after “also recorded” stand apart in the source; their conditions may differ. Where two headings read alike, the source gives them in different places.

Legend:
α4β2 nAChRs [1] = biological target: T1, α4β2 nAChRs (Homo sapiens, UniProt P17787+P43681); experiment: In vitro nAChR functional assay (automated patch-clamp, CHO cells); type: cell-based; details: for Emax: CHO, read-out: % activation of α4β2 nAChR (normalized to nicotine)
Experimental: Electrophysiological responses were recorded using an automated patch-clamp Patchliner Octo® system (Nanion Technologies, Munich, Germany) equipped with two EPC-10 Quadro patch-clamp amplifiers (HEKA Elektronik, Lambrecht, Germany) as described previously. Chinese hamster ovarian (CHO) cells stably expressing human α4β2 nAChRs (Charles River Laboratories, Wilmington, MA, USA) were used. All experiments were performed at room temperature (24 °C) and repeated at least three times. Data were analyzed using Patchmaster software (HEKA Elektronik). Offline data analysis was performed in Apache OpenOffice™ (v4.1.2; […]). Igor Pro software (v6.2.2.2; WaveMetrics, Lake Oswego, OR, USA) was used to determine EC50 values. […] The average values were then fitted to the Hill equation: I=Baseline+X^∧nH(Imax-Baseline)/X^∧nH+EC50^∧nH, where I is the current response, Baseline is the minimal current response, X is the agonist concentration, nH is the Hill coefficient, Imax is the maximal current, and EC50 is the agonist concentration producing half-maximal activation. […]

[2] = test system: zebrafish (Danio rerio; strain AB); details: for Time spent at the bottom of the tank during NTT / anxiolytic-like effect: 30 mg/L
Experimental: The NTT conditions closely matched the most commonly used conditions described by. In brief, adult male and female wild-type zebrafish were treated with the compounds for 20 min in a final volume of 50 mL in a 250-mL treatment beaker, one fish at a time. The fish were briefly rinsed in fresh system water, and then immediately transferred to a trapezoidal tank (14.6-cm height × 5.5-cm width × 27.9-cm top length and × 23.6-cm bottom length) filled with 1.5 L system water. The behavior of the fish was monitored for the next 5 min using the Noldus EthoVision XT system (Wageningen, Netherlands), with the camera placed approximately 1 m from the test tank. The tanks were uniformly illuminated from above at approximately 200 lx, reported to be the optimal illumination condition for NTT [23]. Background noise was kept at a minimum during the test. All experimental parameters were monitored closely and kept as consistent as possible throughout the study. The part of the tank filled with water (11.5-cm height) was virtually divided into top, center, and bottom of equal heights (approximately 3.8 cm per segment) for the analyses. The average time spent at the top and bottom portions of the tank was analyzed to determine the anxiety-like behavior of fish. The average total distance traveled and freezing time (as defined by a complete cessation of movement except for gills and eyes) were calculated to determine the effects of the compounds on the general behavior of fish. The analyses were conducted for 1-min time bins. To account for any day-to-day variability in fish behavior, fish treated with vehicle were tested on the same day as the compounds. […] A minimum of 12 fish (6 females and 6 males) per condition were used for the study. The actual sample size per condition is indicated in Online Resource 1. […] The experimenters were blind to the test conditions. The NTT was validated with buspirone, a clinical anxiolytic drug, as previously described.
If not, the concentration was reduced until no obvious signs of tolerability problems were observed. […] The concentrations were calculated based on the free base molecular weight.
Two-way repeated measures analysis of variance (ANOVA) with Dunnett post hoc was used for the 1-min binned analysis of the zebrafish NTT data. Treatment was one factor, and time was the second factor. […] Thus, male and female datasets were combined for the final analyses. […] The EC50 values were determined by applying the nonlinear regression analysis. All analyses were conducted using GraphPad Prism v8.2.1 (GraphPad Software, San Diego, CA, USA).

[3] = Brain bioavailability assay in zebrafish (UPLC-HRMS of brain homogenate); type: in vivo, Danio rerio; details: zebrafish brain after 20-min exposure, linear relationship assumed, mean ± SEM; for concentration at 20 min: both sexes, zebrafish (Danio rerio), 1 mg/L, read-out: Relative brain level per 1 mg/L compound
Experimental: Four fish (2 males and 2 females) per compound were used to determine the brain bioavailability of the compounds. Immediately after the 20-min compound treatment, the zebrafish were rinsed briefly to remove excessive compound on their body and terminated with 250 mg/L tricaine (CAS No. 886-86-2; Sigma). The fish were decapitated at the level of the gills using a surgical knife. The head was turned dorsal side down, and soft tissue was removed from the ventral side of the skull until the base of the skull was exposed. The skull was broken open and the bone from the ventral side of the brain was removed. The brain was then placed in a microcentrifuge tube, weighed, snap-frozen in liquid nitrogen, and stored at – 80 °C until the analysis.
Briefly, on the day of analysis, the brain samples were defrosted, resuspended in a methanol solution (2:1 [v/v] methanol:MilliQ water), and homogenized with vigorous agitation and ultrasonication (5 min each). The homogenate was centrifuged at 15,000 × rpm for 10 min, and the supernatant was analyzed using a UPLC-Q Exactive Orbitrap-HRMS system (Thermo Fisher Scientific™, Bremen, Germany). Chromatographic separation was achieved on a Synergi™ 4-µm Hydro-RP 80 Å, L.C. Column (250 × 4.6 mm; Phenomenex Inc., Torrance, CA, USA) with 0.1% formic acid in water (mobile phase A) and 0.1% formic acid in acetonitrile (mobile phase B). A gradient method at a 500 µL/min flow rate was applied as follows: (1) 5% B for 1 min, and (2) increase to 95% B over 7 min and hold for 2 min. The injection volume was 5 μL. The mass spectrometer was operated in electrospray positive mode (ESI, Thermo Fisher Scientific), while data acquisition was performed using the parallel reaction monitoring (PRM) and full scan modes. The source settings were set as follows: sheath gas flow rate = 60 psi; aux gas flow rate = 20 arbitrary units; spray voltage = 3.5 kV; capillary temperature = 280 °C; and sweep gas flow rate = 1. The full scan mode parameters were set as follows: resolution = 35,000 FWHM at 200 m/z; AGC target = 1E6; maximum injection time = 110 ms; and scan range = 100–350 m/z. The chromatographic and Orbitrap MS parameters for PRM analysis were the same as those in the full scan mode, except for: AGC target = 2E5; maximum IT = 60 ms; and resolution = 17,500 FWHM at 200 m/z. The XCalibur™ v4.0.27.19 software (Thermo Fisher Scientific) and TraceFinder™ v4.1 Forensic (Thermo Fisher Scientific, San José, CA, USA) were used for system control and data processing, respectively. The Q Exactive 2.8 SP 1 software (Thermo Fisher Scientific) was used to control the mass spectrometer.

α4β2 nAChRs [4] = biological target: T1, α4β2 nAChRs; experiment: In vitro α4β2 nAChR radioligand displacement binding assay; set-up: host or cells: SH-SY5Y cells (human recombinant), membrane preparation; details: for Binding to α4β2 nAChR in target profiling: 10 µM single concentration, effect greater than 50% considered significant
Experimental: (§1) All binding and functional assays for molecular target characterization were conducted by Eurofins Cerep SA (Celle-Lévescault, France) and Eurofins Panlabs Discovery Services Taiwan, Ltd. (New Taipei City, Taiwan) using their standard in vitro binding and functional assays (Online Source 2). The radioligand displacement binding assays employed the gold-standard filtration method using membrane preparations from stable cell lines expressing human or rodent target proteins to determine the interaction of the compounds with specific receptors, channels, and transporters. For this purpose, the competitive binding of test compounds against a [^125I]-, [^3H]-, or [^35S]-labeled agonist and/or antagonist was determined. The specific list of radiolabeled ligands and experimental conditions are summarized in Online Source 2. A single concentration of each compound (10 µM in 0.1% DMSO) was used for the screen. […] Negative values were considered to be an artifact arising from, for example, compounds interfering with the assay readout.
(§2) Assay Source Ligand Conc. Kd Non Specific Incubation Detection Bibl.

[5] = test system: other molecular targets (175 in vitro binding and enzymatic assays); experiment: In vitro molecular target profiling (175 binding and enzymatic assays); details: 10 µM single concentration; 175 assays; effect greater than 50% considered significant
Experimental: as §1
3.1. Experimental Conditions
In Vitro Pharmacology: Binding Assays
as §2

muscle-type nAChR = biological target: T2, muscle-type nAChR (Homo sapiens, UniProt P02708+P07510+Q07001); experiment: Muscle-type nAChR radioligand binding (target profiling); details: 10 µM single concentration; effect greater than 50% considered significant
T2 construct: TE671 cells; host or cells: TE671 cells (endogenous)
Experimental: as §1, §2

α7 nAChR = details: cited from earlier work; for α7 nAChR agonist activity: ref 2 (Alijevic, et al.)
[6] = CHO cells stably expressing human α4β2 nAChRs, patch clamp, 24 °C, mean ± SEM (Fig. 1), read-out: α4β2 nAChR EC50
[7] = other: immersion in compound solution (waterborne exposure)
[8] = all concentrations tested, 20-min treatment, 5-min test, vs vehicle control

T1 sequence (P43681 29-627 limits assumed): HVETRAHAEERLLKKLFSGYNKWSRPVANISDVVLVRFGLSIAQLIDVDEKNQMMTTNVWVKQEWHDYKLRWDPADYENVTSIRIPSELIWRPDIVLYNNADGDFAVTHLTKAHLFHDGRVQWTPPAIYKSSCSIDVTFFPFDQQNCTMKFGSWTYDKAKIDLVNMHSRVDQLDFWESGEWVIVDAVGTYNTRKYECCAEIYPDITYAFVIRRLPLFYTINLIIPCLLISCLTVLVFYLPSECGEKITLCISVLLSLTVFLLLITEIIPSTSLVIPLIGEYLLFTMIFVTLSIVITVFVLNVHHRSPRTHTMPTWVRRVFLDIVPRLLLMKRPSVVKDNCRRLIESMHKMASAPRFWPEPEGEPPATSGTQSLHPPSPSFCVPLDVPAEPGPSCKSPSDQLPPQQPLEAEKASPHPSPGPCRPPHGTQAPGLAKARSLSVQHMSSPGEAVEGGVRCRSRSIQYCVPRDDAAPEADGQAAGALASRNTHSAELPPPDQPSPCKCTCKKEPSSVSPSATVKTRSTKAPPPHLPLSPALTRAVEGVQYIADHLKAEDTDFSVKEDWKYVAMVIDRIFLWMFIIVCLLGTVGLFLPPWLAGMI
T1 sequence (P17787 26-502): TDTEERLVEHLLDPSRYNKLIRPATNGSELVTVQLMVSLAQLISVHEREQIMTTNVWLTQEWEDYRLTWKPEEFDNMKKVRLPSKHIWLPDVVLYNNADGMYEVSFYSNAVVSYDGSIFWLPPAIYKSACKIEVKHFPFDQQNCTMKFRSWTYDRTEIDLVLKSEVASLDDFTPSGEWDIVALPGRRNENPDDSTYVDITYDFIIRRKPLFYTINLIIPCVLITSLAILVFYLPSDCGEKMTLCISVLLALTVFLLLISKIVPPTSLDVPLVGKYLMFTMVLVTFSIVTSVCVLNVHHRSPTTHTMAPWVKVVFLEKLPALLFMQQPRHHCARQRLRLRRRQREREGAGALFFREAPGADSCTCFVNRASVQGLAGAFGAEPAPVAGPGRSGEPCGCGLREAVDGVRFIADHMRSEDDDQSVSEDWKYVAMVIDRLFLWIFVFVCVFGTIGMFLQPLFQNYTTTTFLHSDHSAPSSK
T2 sequence (P02708 21-457): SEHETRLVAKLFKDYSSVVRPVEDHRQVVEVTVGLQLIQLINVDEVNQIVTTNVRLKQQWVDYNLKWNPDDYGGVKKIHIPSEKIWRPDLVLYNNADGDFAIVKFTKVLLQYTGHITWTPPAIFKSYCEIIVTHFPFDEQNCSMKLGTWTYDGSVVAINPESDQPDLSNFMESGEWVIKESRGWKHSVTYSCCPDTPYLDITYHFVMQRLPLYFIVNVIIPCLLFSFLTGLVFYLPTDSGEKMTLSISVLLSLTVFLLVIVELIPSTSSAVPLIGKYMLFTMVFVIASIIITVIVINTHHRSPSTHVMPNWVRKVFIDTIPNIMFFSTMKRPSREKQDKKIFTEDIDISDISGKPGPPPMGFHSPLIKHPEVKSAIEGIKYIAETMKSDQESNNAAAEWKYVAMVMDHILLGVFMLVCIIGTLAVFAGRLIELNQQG
T2 sequence (Q07001 22-517): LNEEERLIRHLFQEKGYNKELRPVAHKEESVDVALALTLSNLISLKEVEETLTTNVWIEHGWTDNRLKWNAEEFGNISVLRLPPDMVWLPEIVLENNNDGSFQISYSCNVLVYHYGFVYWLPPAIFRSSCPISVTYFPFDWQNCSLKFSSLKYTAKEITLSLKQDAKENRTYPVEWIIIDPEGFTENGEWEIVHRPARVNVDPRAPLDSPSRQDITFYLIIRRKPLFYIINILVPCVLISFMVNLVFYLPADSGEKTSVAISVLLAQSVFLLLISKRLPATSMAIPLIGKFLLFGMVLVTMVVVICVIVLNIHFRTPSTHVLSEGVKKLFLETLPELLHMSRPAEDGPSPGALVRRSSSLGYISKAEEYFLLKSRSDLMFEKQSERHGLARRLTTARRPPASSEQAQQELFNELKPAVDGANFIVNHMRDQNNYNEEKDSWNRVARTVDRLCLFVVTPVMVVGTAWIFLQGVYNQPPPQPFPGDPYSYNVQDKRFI
T2 sequence (P07510 23-517): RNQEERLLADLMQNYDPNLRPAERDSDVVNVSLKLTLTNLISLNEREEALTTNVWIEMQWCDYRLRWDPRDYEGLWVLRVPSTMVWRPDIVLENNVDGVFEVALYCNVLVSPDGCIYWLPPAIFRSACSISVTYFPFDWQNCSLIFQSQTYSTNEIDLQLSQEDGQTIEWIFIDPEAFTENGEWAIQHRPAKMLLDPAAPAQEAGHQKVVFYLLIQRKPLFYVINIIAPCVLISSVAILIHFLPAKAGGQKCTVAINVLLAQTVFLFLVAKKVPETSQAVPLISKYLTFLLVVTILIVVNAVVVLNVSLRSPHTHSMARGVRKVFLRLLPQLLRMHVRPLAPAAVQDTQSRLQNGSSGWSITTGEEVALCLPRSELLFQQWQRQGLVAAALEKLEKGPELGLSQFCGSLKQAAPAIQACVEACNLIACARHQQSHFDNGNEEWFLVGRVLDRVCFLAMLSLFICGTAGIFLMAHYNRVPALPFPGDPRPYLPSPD

Compound | EC50 (α4β2 nAChRs [1]; [6]) | Emax (α4β2 nAChRs [1]) [%] | concentration at 20 min ([3]; in vivo) [ng/g] | Relative brain level per 1 mg/L compound [3] | concentration at 20 min [3, 7] [ng/g] | % activation of α4β2 nAChR (normalized to nicotine) (α4β2 nAChRs [1]) [%] | Time spent at the bottom of the tank during NTT [2, 8] | further results
CN1CC=CC[C@H]1c1cccnc1 [Methylanatabine, (S)-N-methylanatabine] | < 8 µM | 26 | 1390 ± 560 | ~1 ng/mg tissue |  |  |  | EC50 (α4β2 nAChRs [1]; α4β2 nAChR EC50): 6.2 µM; Concentration effective in reducing anxiety-like behavior in NTT ([2]; 20-min treatment): 10 mg/L; Time spent at the bottom of the tank during NTT ([2]; highest concentration tested (10 mg/L), 20-min treatment): anxiolytic-like effect; IC50 (α4β2 nAChRs [4]): 0.891 µM
CN1C(=O)CC[C@H]1c1cccnc1 [Cotinine, (–)-cotinine] | 85.3 µM | 59 |  | less than 0.1 ng/mg tissue | 20 ± 10 |  |  | Time spent at the bottom of the tank during NTT ([2]; 100 mg/L, 20-min treatment): reduced the overall time spent at the bottom; Concentration needed for anxiolytic-like effect relative to nicotine ([2]; NTT): > 300 fold; Binding to or regulation of other molecular targets [5]: did not bind or regulate the activities of other molecular targets; Binding to muscle-type nAChR in target profiling (muscle-type nAChR): specific binding; Binding to α4β2 nAChR in target profiling (α4β2 nAChRs [4]): specific binding; IC50 (α4β2 nAChRs [4]; n = 3, read-out: α4β2 nAChR IC50 (binding)): 9.9 µM
( ±)-nornicotine |  |  |  |  |  | 44 | no significant effect | 
CN1CCC[C@H]1c1cccnc1 [Nicotine, (–)-nicotine, reference compound] |  |  | 700 ± 140 |  |  | 100 |  | Concentration effective in reducing anxiety-like behavior in NTT ([2]; in vivo): 0.3 mg/L; Binding to or regulation of other molecular targets [5]: did not bind or regulate the activities of other molecular targets; Binding to muscle-type nAChR in target profiling (muscle-type nAChR): specific binding; α7 nAChR agonist activity (α7 nAChR): weak α7 nAChR agonist; Binding to α4β2 nAChR in target profiling (α4β2 nAChRs [4]): specific binding
CC(=O)OCC[N+](C)(C)C [Acetylcholine, reference compound] |  |  |  |  | 20 ± 10 | 100 | no effect | 
c1cnc2cc3c(cc2n1)[C@@H]1CNC[C@H]3C1 [Varenicline, reference compound] |  |  |  |  | 450 ± 160 |  |  | 
c1cncc([C@@H]2CCCCN2)c1 [Anabasine, ( +)-Anabasine] |  | 7 | 230 ± 70 |  |  |  | no significant effect | effectiveness in activating α4β2 nAChRs in vitro (α4β2 nAChRs [1]; preliminary data): 8 ± 4%; EC50 (α4β2 nAChRs [1]; α4β2 nAChR EC50, CHO cells stably expressing human α4β2 nAChRs, patch clamp, 24 °C, mean ± SEM (Fig. 1)): < 8 µM and 0.9 µM; α7 nAChR activation relative to maximum receptor activation by nicotine or anatabine (α7 nAChR): approximately a third; α7 nAChR agonist activity (α7 nAChR): weak α7 nAChR agonist
O=C1CC2(CCCC2)CC(=O)N1CCCCN1CCN(c2ncccn2)CC1 [Buspirone, buspirone, reference compound] |  |  |  |  |  |  | either reduced the time spent on the bottom or increased the time spent on the top at multiple time points | Time spent at the bottom of the tank during NTT / anxiolytic-like effect ([2]; 20-min treatment): consistent anxiolytic-like effect across all time points; Freezing response during NTT ([2]; 100 mg/L): increased the freezing response at 1, 2, and 5 min; Total distance traveled during NTT ([2]; 100 mg/L): reduced the total distance traveled at 1, 4, and 5 min
O=C(c1ccc(Cl)o1)N1CC2CNCC2C1 (stereo not drawn) [AZD1446, 3-(5-chloro-2-furoyl)-3,7-diazabicyclo[3.3.0]octane, reference compound] | 7.9 µM and < 8 µM | 100 |  | could not be detected; also recorded: at the limit of detection; also recorded: No value^d |  |  |  | Time spent at the bottom of the tank during NTT / anxiolytic-like effect ([2]; 20-min treatment): decreased the time spent at the bottom at 2 and 4 min; Time spent at the bottom of the tank during NTT ([2]; 100 mg/L, 20-min treatment): decreased the time spent at the bottom for the first 2 min; Time spent at the top of the tank during NTT ([2]; 30 and 100 mg/L, 20-min treatment): increased the time spent at the top; Size of the reduction of anxiety-like behavior in NTT ([2]; lower two concentrations (30 and 100 mg/L)): ~ 10%
CNCC/C=C/c1cccnc1 [Metanicotine, metanicotine] |  | 100 | 70 ± 10 | less than 0.1 ng/mg tissue |  |  | no significant effect | EC50 (α4β2 nAChRs [1]; α4β2 nAChR EC50): 19.5 ± 6.4 µM
